From publication PMC12118337, “Development of a Peptide Inhibitor Targeting the C‐SH2 Domain of the SHP2 Phosphatase” (Chembiochem, 2025)
Residues, ends and D or L forms follow the SMILES beside them. *: point of attachment. 5FAM = O=C1OC2(c3ccc(O)cc3Oc3cc(O)ccc32)c2ccc(C(=O)*)cc21; X1 = O=C(O)C(C(=O)O)*

Key:
[1] = Peptide stability in Jurkat cell lysate (LC-MS); assay type: in vitro ADME; details: 200 µM peptide, WT Jurkat T cell lysate (RIPA buffer with protease inhibitor cocktail), 37 °C in the dark, 0, 6 or 24 h, peak area at 254 nm normalised to FAM (200 µM) internal control, three independent experiments
Protocol: 1. Cell culture and cell lines
Jurkat T cells were cultured in RPMI 1640 GlutaMAX (Thermo Fisher Scientific) supplemented with 10% heat-inactivated fetal bovine serum (FBS; Thermo Fisher Scientific), 100 U/mL penicillin (Sigma-Aldrich) and 100 µg/mL streptomycin (Sigma-Aldrich). HeLa cells were cultured in DMEM low glucose GlutaMAX (Thermo Fisher Scientific) supplemented with 10% fetal bovine serum (FBS; Thermo Fisher Scientific), 100 U/mL penicillin (Sigma-Aldrich) and 100 µg/mL streptomycin (Sigma-Aldrich).
Both cell lines tested negative for mycoplasma contamination.
2. Peptide stability in Jurkat cell lysate
The stability of FAM-labelled peptide 26 in WT Jurkat T cell lysate was evaluated by LC-MS. 106 Jurkat cells were washed with 1 mL PBS and lysed in 1 mL ice-cold RIPA buffer (25 mM Tris-HCl pH 7.5, 150 mM NaCl, 1% Nonidet P-40, 1% sodium deoxycholate, 0.1% SDS) containing cOmplete EDTA-free Protease Inhibitor Cocktail (Roche), on ice for 30 minutes vortexing every 10 minutes. Cell lysate was centrifuged at 20000 x g for 20 minutes at 4°C. […] The supernatant was collected on ice, filtered using a 13 mm syringe filter with a 0.2 µm PTFE membrane (Pall Life Sciences) and analysed by analytical HPLC-MS. The area under the peak at 254 nm corresponding to peptide 26 and FAM was determined. […]

CSK SH2 domain = assay: FP binding assay, CSK SH2 domain; details: 100 nM peptide, three independent experiments
Protocol: buffer and stored in 5 mL binding buffer at 4°C. His-tagged 3C protease (0.5 mg; EMBL) was added to the pooled eluted fractions and dialysed using Spectra Por Dialysis Tubing (MWCO 6-8 kDa, 23 mm; Spectrum Labs) in 1 L of binding buffer at 4°C for 3 hours, then overnight in fresh buffer. A new column was prepared by loading 2 mL Ni-NTA Agarose (Invitrogen) as a 50% slurry in EtOH. The column was washed with 10 mL H2O to remove the EtOH and equilibrated with 10 mL binding buffer. The protein/3C protease mixture was loaded onto the column and incubated for 1 hour at 4°C on a rocker. […] Protein purification was monitored by SDS-PAGE using NuPAGE 4-12% Bis-Tris Protein Gels (Invitrogen) run in MOPS buffer (50 mM MOPS, 50 mM Tris-HCl pH 7.7, 1 mM EDTA, 0.1% SDS) followed by Coomassie staining using Coomassie Brilliant Blue (Roth). […]
4. Fluorescence polarization
Fluorescence polarization (FP) was used to measure the binding of FAM-labelled peptides to the SHP2 C-SH2, SHP2 N-SH2, SHP2 PTP, CSK SH2 or Src SH2 domains. […]
concentration of 100 nM in a final volume of 200 µL. […] The FP was immediately measured on a Synergy H1 Microplate Reader (BioTek) with the excitation and emission monitored at 485 nm and 528 nm, respectively, over 30 minutes. FP values were automatically calculated by the Gen5 3.03 (BioTek) software associated with the microplate reader. […]

stability in Jurkat T cell lysate [1]: stable | binding to CSK SH2 domain compared to SHP2 C‐SH2 domain (CSK SH2 domain): at least two orders of magnitude weaker
Structure (SMILES): CC[C@H](C)[C@H](NC(=O)[C@@H](NC(=O)[C@H](C)NC(=O)[C@H](Cc1ccc(OC(C(=O)O)C(=O)O)cc1)NC(=O)[C@H](CCC(=O)O)NC(=O)[C@@H](NC(=O)[C@H](CCC(N)=O)NC(=O)c1ccc2c(c1)C(=O)OC21c2ccc(O)cc2Oc2cc(O)ccc21)[C@@H](C)O)[C@@H](C)O)C(=O)N[C@@H](CCCCN)C(=O)N[C@@H](Cc1c[nH]cn1)C(=O)N1CCC[C@H]1C(N)=O [peptide 26] (5FAM-QTEY(X1)ATIKHP-NH2)
